# “And” between values parts separate entries of the source, which are not always exact repeats. Equal values may be shown once. “Also recorded” adds a separate entry of the source. Read-outs that look alike come from different tables or passages of the source.
# What was measured:
# [1] = Plasma pharmacokinetics after a single IV tail vein injection; format: in vivo, BALB/C mice; conditions: for half-life / Cmax / AUC(0-inf) / clearance: iv; for concentration at 24 h: 24 h after single IV, read-out: average plasma concentration 24 h postinjection
# Procedure: (§1) Pyrrole–imidazole polyamide pharmacokinetic studies were performed in 10- to 12-week-old female BALB/C mice (Charles River). Polyamides were solubilized in PBS (1) or PBS/DMSO (2) and administered via intravenous (IV) tail vein injection at concentrations of 7.5 and 5 mg/kg, respectively. For each experiment, groups of 3 animals were euthanized at 0.083, 0.25, 0.5, 1, 2, 4, 8, and 24 h after injection. Animals designated for the 4, 8, and 24 h time points were housed in metabolic cages for collection of urine and feces as described below. All animals used in the pharmacokinetic experiments were performed under an approved protocol at the City of Hope.
# Concentrations of polyamides 1 and 2 were analyzed by LC/MS/MS using a Waters Acquity UPLC system (Milford, MA, USA) interfaced with a Waters Quattro Premier XE Mass Spectrometer. HPLC separation was achieved using a Jupiter 4u Proteo 90A 150 × 2.0 mm column (Phenomenex, Torrance, CA, USA) proceeded by a Phenomenex C8 guard column (Torrance, CA, USA). The column temperature was maintained at 30 °C. The mobile phase consisted of A (0.05 % acetic acid in water) and B (0.05 % acetic acid in acetonitrile). The following gradient program was used: 8 % B (0–1 min, 0.3 ml/min), 16 % B (3 min, 0.3 ml/min), 58 % B (6 min, 0.3 ml/min), 90 % B (7 min, 0.3 ml/min), and 8 % B (7.3 min, 0.3 ml/min). The total run time was 11.5 min. The auto-injector temperature was maintained at 5 °C. The strong needle wash solution was 5 % formic acid in MeOH/ACN (2:8) for both compounds, and the weak needle wash solution was 30 % MeOH in water for compound 1 and 50 % ACN in water for compound 2. The electrospray ionization source of the mass spectrometer was operated in positive ion mode with a cone gas flow of 50 L/hr and a desolvation gas flow of 700 L/hr. The capillary voltage was set to 3.2 kV, and the cone and collision cell voltages were optimized to 32 and 27 V for 1 and the INS 3. Voltages were optimized to 31 and 20 V for 2 and the INS 4. The source temperature was 125 °C, and the desolvation temperature was 470 °C. A solvent delay program was used from 0 to 4.0 min and from 6.1 to 11.5 min to minimize the mobile phase to flow to the source. MassLynx version 4.1 software was used for data acquisition and processing.
# Plasma and urine samples were prepared for LC/MS/MS analysis by mixing 30 μL of plasma with 20 μL of 50 % MeOH and 50 % aqueous 1 % HOAc. The mixture was vortexed and mixed with an additional 120 μL of 0.5 % HOAc in MeOH/ACN (4:6) and 20 μL of 6.0 μg/mL INS in MeOH/1 % aqueous HOAc (1:1). The mixture was vortexed again for 2 min and centrifuged at the highest setting for 4 min. Next, 20 μL of the supernatant was transferred to a new tube and mixed with 180 μL of 50 % MeOH/ACN (4:6) and 50 % aqueous 1 % HOAc.
# Standard curves were prepared mixing untreated plasma with 20 μL of 50 % MeOH and 50 % aqueous 1 % HOAc prepared with various concentrations of 1 and 2. Internal standards were added as described above.
# Plasma pharmacokinetic parameters were derived from polyamide concentration profiles using both non-compartmental and compartmental methods. Non-compartmental analysis was performed according to statistical moment theory and the rule of linear trapezoids, while compartmental analysis was performed in ADAPT II [24]. Pharmacokinetic parameters estimated from the non-compartmental analysis include the maximum concentration (C max), the terminal elimination half-life (t 1/2), the mean residence time (MRT), the area under the concentration curve (AUC0–24h), the AUC extrapolated to infinity (AUC0–∞), and the clearance (CL). Additional plasma pharmacokinetic parameters determined from the compartmental analysis include the alpha and beta half-lives (t 1/2) and the apparent volume of distribution (V d). Tissue pharmacokinetic parameters were determined non-compartmentally and included the C max and AUC0–24h. […]
# [2] = Tissue distribution (liver, kidney, lung) after a single IV injection; format: in vivo, BALB/C mice; conditions: for Tmax / concentration at 24 h: female, BALB/C, mouse; for concentration at 24 h: experiment endpoint (24 h), read-out: concentration remaining in the liver at the experiment endpoint; for AUC (AUC0–24h) kidney / C max kidney / AUC (AUC0–24h) liver / C max liver / AUC (AUC0–24h) lung / C max lung: 7.5 mg/kg (1), 5 mg/kg (2); for concentration in the lung maintained over the entire time course: lowest level over 24 h
# Procedure: as §1
# Distribution of polyamides 1 and 2 was determined in the liver, kidneys, and lungs. The organs were harvested post-euthanasia and prepared via similar processes. A piece of the mouse organ was weighed and mixed with distilled water (3 μL/mg tissue). The tissue was then homogenized by pulsing three times on a TissueLyser for 2 min each at 30 Hz. Next, 30 μL of the tissue homogenate was mixed with 20 μL of 50 % MeOH and 50 % aqueous 1 % HOAc. The mixture was then vortex mixed with 0.12 mL 0.5 % HOAc in MeOH/ACN (2:8) and 20 μL of 6.0 μg/mL INS in MeOH/1 % aqueous HOAc (1:1) for 10 min and centrifuged at the highest setting for an additional 10 min. Samples treated with polyamide 1 were then diluted with 50 % MeOH/ACN (4:6) and 50 % aqueous 1 % HOAc. Samples treated with polyamide 2 were diluted with 50 % MeOH/ACN (4:6) and 50 % aqueous 3 % FA.
# Plasma pharmacokinetic parameters were derived from polyamide concentration profiles using both non-compartmental and compartmental methods. Non-compartmental analysis was performed according to statistical moment theory and the rule of linear trapezoids, while compartmental analysis was performed in ADAPT II [24]. Pharmacokinetic parameters estimated from the non-compartmental analysis include the maximum concentration (C max), the terminal elimination half-life (t 1/2), the mean residence time (MRT), the area under the concentration curve (AUC0–24h), the AUC extrapolated to infinity (AUC0–∞), and the clearance (CL). Additional plasma pharmacokinetic parameters determined from the compartmental analysis include the alpha and beta half-lives (t 1/2) and the apparent volume of distribution (V d). Tissue pharmacokinetic parameters were determined non-compartmentally and included the C max and AUC0–24h. Urinary and fecal excretion data were expressed as the cumulative percentage of the administered dose.
# C57BL/6 mice = test: Toxicity (weight loss, signs of duress) after a single SC injection; conditions: for additional signs of duress / dose level with critical (>15 %) / dose-limiting weight loss: single SC injection, 7-day observation
# Description: Four animals were used in each group unless otherwise noted.
# [3] = female, BALB/C, mouse, plasma, compartmental analysis, single IV, 7.5 mg/kg (1), 5 mg/kg (2)
# [4] = female, BALB/C, mouse, plasma, non-compartmental analysis, single IV, 7.5 mg/kg (1), 5 mg/kg (2)
# [5] = female, BALB/C, mouse, plasma, 7.5 mg/kg (1), 5 mg/kg (2)
# [6] = plasma, compartmental analysis, single IV, 7.5 mg/kg (1), 5 mg/kg (2)
# [7] = plasma, non-compartmental analysis, single IV, 7.5 mg/kg (1), 5 mg/kg (2)
smiles,measurement,setting,value
CN(CCCNC(=O)c1cccc(C(=O)O)c1)CCCNC(=O)c1cc(NC(=O)c2cc(NC(=O)c3cc(NC(=O)c4nc(NC(=O)[C@H](N)CCNC(=O)c5cc(NC(=O)c6cc(NC(=O)c7cc(NC(=O)c8nccn8C)cn7C)cn6C)cn5C)cn4C)cn3C)cn2C)cn1C [Polyamide 1],half-life,"[1]; female, BALB/C, mouse, plasma, plasma, compartmental analysis, single IV, 7.5 mg/kg (1), 5 mg/kg (2), read-out: t 1/2 α (initial) (converted)",0.5 h
same,half-life,"[1]; female, BALB/C, mouse, plasma, plasma, compartmental analysis, single IV, 7.5 mg/kg (1), 5 mg/kg (2), read-out: t 1/2 β (terminal) (converted)",4.6 h
same,half-life,"[1]; female, BALB/C, mouse, plasma, plasma, non-compartmental analysis, single IV, 7.5 mg/kg (1), 5 mg/kg (2), read-out: Elimination t 1/2 (converted)",5.2 h
same,Cmax,"[1]; female, BALB/C, mouse, plasma, compartmental analysis (2-compartment model), single IV, 7.5 mg/kg (1), 5 mg/kg (2)",43600 ng/mL
same,AUC(0-inf),[1]; [3],67500 ng·h/mL
same,clearance,[1]; [3],0.035 mL/min
same,AUC(0-inf),[1]; [4],77400 ng·h/mL
same,clearance,[1]; [4],0.03 mL/min
same,Cmax,"[1]; female, BALB/C, mouse, plasma, non-compartmental analysis, single IV, 7.5 mg/kg (1), 5 mg/kg (2), mean ± S.D., n = 3",49400 ± 11200 ng/mL
same,concentration at 24 h,[1]; [5],210 ± 100 ng/mL
same,Vd,"[1]; female, BALB/C, mouse, plasma, compartmental analysis, single IV, 7.5 mg/kg (1), 5 mg/kg (2), read-out: V d",0.0081 L
same,AUC(0-t),[1]; [4],75800 ng·h/mL
same,MRT,"[1]; female, BALB/C, mouse, plasma, non-compartmental analysis, single IV, 7.5 mg/kg (1), 5 mg/kg (2), read-out: MRT",3.3 h
same,maximum plasma concentration relative to effective concentration for PSA mRNA downregulation in cell culture,[1]; plasma C max vs cell culture effective concentration,over 3 times
same,Tmax,"[2]; kidney, single IV, read-out: time of maximum concentration in kidney postinjection (converted)",0.0833 h
same,concentration at 24 h,"[2]; liver, single IV",4800 ± 300 ng/g
same,Tmax,"[2]; liver, single IV, read-out: time of maximum concentration in liver postinjection (converted)",0.0833 h
same,Tmax,"[2]; lung, single IV, read-out: time of peak concentration in lung following injection (converted)",0.25 h
same,AUC (AUC0–24h) kidney,"[2]; kidney, single IV",299.2 µg·h/g
same,C max kidney,"[2]; kidney, single IV",27.0 ± 2.9 µg/g
same,AUC (AUC0–24h) liver,"[2]; liver, single IV",157.7 µg·h/g
same,C max liver,"[2]; liver, single IV",11.7 ± 1.3 µg/g
same,concentration in the lung maintained over the entire time course,"[2]; lung, single IV",above 2.8 ± 0.2 μg/g
same,AUC (AUC0–24h) lung,"[2]; lung, single IV",130.6 µg·h/g
same,C max lung,"[2]; lung, single IV",16.4 ± 1.4 µg/g
same,additional signs of duress,C57BL/6 mice,no additional sign of duress was observed
same,dose level with critical (>15 %) / dose-limiting weight loss,C57BL/6 mice,10 mg/kg
CC(=O)N[C@@H](CNC(=O)c1cc(NC(=O)c2cc(NC(=O)c3cc(NC(=O)c4nccn4C)cn3C)cn2C)cn1C)CC(=O)Nc1cn(C)c(C(=O)Nc2cc(C(=O)Nc3cc(C(=O)Nc4cc(C(=O)NCCCN(C)CCCNC(=O)c5cccc(C(=O)O)c5)n(C)c4)n(C)c3)n(C)c2)n1 [Polyamide 2],concentration at 24 h,[1]; [5],490 ± 200 ng/mL
same,C max,"[1]; plasma, compartmental analysis (2-compartment model), single IV, 7.5 mg/kg (1), 5 mg/kg (2)",40200 ng/mL
same,AUC0–∞,[1]; [6],144800 ng·h/mL
same,CL,[1]; [6],0.7 mL/h
same,Vd,[1]; [6],0.004 L
same,t 1/2 α (initial),[1]; [6],6 min
same,t 1/2 β (terminal),[1]; [6],4.2 h
same,AUC0–t,[1]; [7],173500 ng·h/mL
same,AUC0–∞,[1]; [7],176500 ng·h/mL
same,CL,[1]; [7],0.6 mL/h
same,Elimination t 1/2,[1]; [7],4.3 h
same,MRT,[1]; [7],4.9 h
same,C max,"[1]; plasma, non-compartmental analysis, single IV, 7.5 mg/kg (1), 5 mg/kg (2), mean ± S.D., n = 3",41300 ± 5900 ng/mL
same,concentration at 24 h,"[2]; liver, single IV",17400 ± 8100 ng/g
same,time of maximum concentration in kidney postinjection,"[2]; kidney, single IV",5 min
same,AUC (AUC0–24h) kidney,"[2]; kidney, single IV",424.7 µg·h/g
same,C max kidney,"[2]; kidney, single IV",35.1 ± 2.8 µg/g
same,time of maximum concentration in liver postinjection,"[2]; liver, single IV",5 min
same,AUC (AUC0–24h) liver,"[2]; liver, single IV",301.3 µg·h/g
same,C max liver,"[2]; liver, single IV",43.8 ± 0.7 µg/g
same,lung C max of polyamide 2 relative to compound 1,"[2]; lung, initial distribution",greater than 15 fold
same,concentration in the lung maintained over the entire time course,"[2]; lung, single IV",> 21.8 ± 7.6 µg/g
same,time of peak concentration in lung following injection,"[2]; lung, single IV",15 min
same,AUC (AUC0–24h) lung,"[2]; lung, single IV",523.5 µg·h/g
same,C max lung,"[2]; lung, single IV",256 ± 93.1 µg/g
same,relative toxicity in weight curve experiments,C57BL/6 mice; single SC injection of 1 and 2,more toxic
same,additional signs of duress,C57BL/6 mice,multiple signs of duress such as loss of ambulation and hunched posture in addition to weight loss; also recorded: additional signs of physical duress in addition to weight loss at all concentrations except 1.1 mg/kg
same,dose level with critical (>15 %) / dose-limiting weight loss,C57BL/6 mice,4.5 mg/kg and 2.3 mg/kg
